Test systems include RXF 393 renal; NCI-H23 lung; RPMI-8226 leukemia; SK-MEL-28 melanoma; CAKI-1 renal; UACC-257 melanoma; SF-268 CNS; SF-539 CNS.
What all share (experiment): inhibition of tumour cell growth, NCI panel, 48 h

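All cell lines were grown in 96-well plates and treated with compound for 48 hours. The concentration for 50% growth inhibition is given as GI50. Definition used: TGI = concentration required for complete inhibition of growth.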

For the molecule `Cc1cc(I)cc(CNCCN(C)C)c1O`, the GI50 in the experiment with RXF 393 renal is 30.6 µM; in the experiment with NCI-H23 lung, 97.3 µM; in the experiment on RPMI-8226 leukemia, 35200 nM; in the experiment with SK-MEL-28 melanoma, 28.5 µM; in the experiment on CAKI-1 renal, 50.1 µM; in the experiment with UACC-257 melanoma, > 62.5 µM. Further, the GI50 in the experiment with SF-268 CNS was 65.9 µM; in the experiment on SF-539 CNS it was > 89.9 µM. For the same molecule, the TGI in the experiment on RXF 393 renal was > 100 µM; with NCI-H23 lung, > 100 µM; with RPMI-8226 leukemia, > 100 µM; with SK-MEL-28 melanoma, > 80.4 µM; in the experiment with CAKI-1 renal, > 100 µM; with UACC-257 melanoma, > 100 µM. Besides, the TGI in the experiment on SF-268 CNS and in the experiment on SF-539 CNS was > 100 µM in each case.
With `COc1cccc2c1nc(C(F)F)n2-c1nc(-c2ccc(NS(=O)(=O)CCN(C)C)cc2)nc(N2CCOCC2)n1`, the GI50 in the experiment with RXF 393 renal is 0.105 µM; in the experiment with NCI-H23 lung, 0.206 µM; in the experiment with RPMI-8226 leukemia it was 272 nM; in the experiment with SK-MEL-28 melanoma it was 0.0774 µM; with CAKI-1 renal it was 0.168 µM; in the experiment on UACC-257 melanoma it was 0.116 µM. Further, the GI50 with SF-268 CNS was 0.157 µM; in the experiment on SF-539 CNS, 0.197 µM. In addition, the TGI in the experiment on RXF 393 renal came out at 0.58 µM; in the experiment with NCI-H23 lung it was 23.3 µM; in the experiment on RPMI-8226 leukemia, 2.41 µM; in the experiment with SK-MEL-28 melanoma, 2.5 µM; in the experiment on CAKI-1 renal it was 4.69 µM; with UACC-257 melanoma, 1.72 µM. In addition, the TGI in the experiment on SF-268 CNS was found to be 13.3 µM; with SF-539 CNS, 2.63 µM.
As for `CN1CCN(Cc2ccc(NC(=O)c3cncc(C#Cc4cnc(N)c5ncccc45)c3)cc2C(F)(F)F)CC1`, the GI50 is 0.26 µM in the experiment with RXF 393 renal; 0.284 µM in the experiment on NCI-H23 lung; 401 nM in the experiment with RPMI-8226 leukemia; 0.389 µM in the experiment with SK-MEL-28 melanoma; 0.231 µM in the experiment with CAKI-1 renal; 0.639 µM in the experiment with UACC-257 melanoma. The GI50 is 0.511 µM with SF-268 CNS and 0.306 µM with SF-539 CNS. In addition, the TGI in the experiment with RXF 393 renal was 1.09 µM; in the experiment with NCI-H23 lung it was 6.26 µM; in the experiment on RPMI-8226 leukemia it was 8.2 µM; in the experiment with SK-MEL-28 melanoma it was 1.59 µM; with CAKI-1 renal it was 4.07 µM; in the experiment on UACC-257 melanoma, 5.6 µM. In addition, the figures for the TGI in the experiment on SF-268 CNS and in the experiment with SF-539 CNS were 2.95 µM and 1.47 µM, respectively.
As to `Cc1c(Cl)cccc1C(=O)Nc1nc2c(s1)CN(C(=O)Nc1cccc(C(F)(F)F)c1)CC2`, the GI50 with RXF 393 renal was 0.106 µM; in the experiment with NCI-H23 lung, 0.234 µM; with RPMI-8226 leukemia, 202 nM; in the experiment with SK-MEL-28 melanoma it was 0.985 µM; with CAKI-1 renal it was 0.216 µM; in the experiment on UACC-257 melanoma, 2.21 µM. Moreover, the GI50 with SF-268 CNS is 0.467 µM; with SF-539 CNS, 0.155 µM. The TGI is 0.349 µM in the experiment on RXF 393 renal; > 50 µM in the experiment on NCI-H23 lung; > 39.2 µM with RPMI-8226 leukemia; > 50 µM with SK-MEL-28 melanoma; > 50 µM with CAKI-1 renal; > 50 µM in the experiment on UACC-257 melanoma. Moreover, the TGI in the experiment on SF-268 CNS is > 50 µM; in the experiment with SF-539 CNS, 0.885 µM.
`O=C(N/N=C/c1ccc(Cl)cc1)c1ccc(NC(=O)c2ccccn2)cc1`: the GI50 in the experiment on RXF 393 renal was 15.4 µM; in the experiment on NCI-H23 lung, 26.3 µM; with RPMI-8226 leukemia, > 100000 nM; in the experiment on SK-MEL-28 melanoma, 33 µM; with CAKI-1 renal, 21.1 µM; with UACC-257 melanoma, > 100 µM. The GI50 in the experiment with SF-268 CNS is 16.1 µM; in the experiment on SF-539 CNS, 15.8 µM. The TGI in the experiment on RXF 393 renal was 63.3 µM; in the experiment with NCI-H23 lung, > 100 µM; in the experiment with RPMI-8226 leukemia it was > 100 µM; with SK-MEL-28 melanoma it was > 100 µM; with CAKI-1 renal it was > 100 µM; in the experiment on UACC-257 melanoma, > 100 µM. Besides, the TGI is 95 µM with SF-268 CNS and 40.3 µM in the experiment with SF-539 CNS.
For `C[N+]1([O-])C2CCC1CC(OC(=O)C(CO)c1ccccc1)C2` (stereo not given), the TGI with RXF 393 renal, in the experiment with NCI-H23 lung, with RPMI-8226 leukemia, with SK-MEL-28 melanoma, in the experiment on CAKI-1 renal and with UACC-257 melanoma was > 100 µM each time. The TGI in the experiment on SF-268 CNS and in the experiment with SF-539 CNS was > 100 µM each time.
With `O=C(/C=C\c1ccc(O)c(O)c1)c1ccccc1O`, the GI50 is 4.21 µM in the experiment with RXF 393 renal; 12.7 µM in the experiment on NCI-H23 lung; 578 nM with RPMI-8226 leukemia; 15.1 µM with SK-MEL-28 melanoma; 4.45 µM in the experiment on CAKI-1 renal; 12.8 µM in the experiment on UACC-257 melanoma. The results for the GI50 with SF-268 CNS and with SF-539 CNS were 12.1 µM and 6.69 µM, respectively. The TGI was 17.2 µM with RXF 393 renal; 32.8 µM in the experiment on NCI-H23 lung; 29.6 µM in the experiment on RPMI-8226 leukemia; 42.7 µM in the experiment on SK-MEL-28 melanoma; 40 µM with CAKI-1 renal; 44 µM in the experiment on UACC-257 melanoma. Besides, the results for the TGI in the experiment on SF-268 CNS and with SF-539 CNS were 59 µM and 26.5 µM, respectively.
As to `COc1ccc(C2=NN(C(N)=S)C(c3ccc4c(c3)OCO4)C2)cc1` (stereo not given), the GI50 was 4.28 µM with RXF 393 renal; 3.71 µM in the experiment with NCI-H23 lung; 1880 nM in the experiment with RPMI-8226 leukemia; 9.33 µM with SK-MEL-28 melanoma; 2.6 µM in the experiment on CAKI-1 renal; 3.96 µM with UACC-257 melanoma. The values for the GI50 in the experiment on SF-268 CNS and with SF-539 CNS were 2.79 µM and 2.12 µM, respectively. Further, the TGI in the experiment on RXF 393 renal was > 100 µM; in the experiment on NCI-H23 lung, 23.3 µM; in the experiment with RPMI-8226 leukemia it was 6.33 µM; in the experiment with SK-MEL-28 melanoma, > 100 µM; in the experiment with CAKI-1 renal, 8.91 µM; in the experiment with UACC-257 melanoma, 68.5 µM. Also, the TGI turned out to be 8.02 µM in the experiment on SF-268 CNS and 5.21 µM in the experiment with SF-539 CNS.
For `O=C([CH-]C(=O)c1ccccc1)c1ccccc1.O=C([CH-]C(=O)c1ccccc1)c1ccccc1.O=C([CH-]C(=O)c1ccccc1)c1ccccc1.[Ga+3]`, the GI50 with RXF 393 renal is 43.7 µM; in the experiment with NCI-H23 lung, 47.4 µM; in the experiment with RPMI-8226 leukemia, 27000 nM; in the experiment with SK-MEL-28 melanoma it was > 100 µM; in the experiment on CAKI-1 renal, 67 µM; with UACC-257 melanoma, 93.3 µM. Further, the GI50 with SF-268 CNS was 35.1 µM; in the experiment with SF-539 CNS it was 33.9 µM. Moreover, the TGI with RXF 393 renal, with NCI-H23 lung, in the experiment with RPMI-8226 leukemia, with SK-MEL-28 melanoma, in the experiment on CAKI-1 renal and in the experiment with UACC-257 melanoma was > 100 µM in each case. Moreover, the TGI in the experiment with SF-268 CNS and in the experiment on SF-539 CNS was > 100 µM in each case.
With `O=C1NN2CC(c3ccccc3)=NN=C2c2ccccc21`, the GI50 is 23 µM with RXF 393 renal; 17.7 µM in the experiment on NCI-H23 lung; 19400 nM in the experiment with RPMI-8226 leukemia; 28.1 µM in the experiment with SK-MEL-28 melanoma; 33.5 µM in the experiment on CAKI-1 renal; 59.1 µM in the experiment with UACC-257 melanoma. Moreover, the GI50 with SF-268 CNS is 26.8 µM; in the experiment with SF-539 CNS, 25.8 µM. The TGI was 48.4 µM in the experiment on RXF 393 renal; 38.7 µM with NCI-H23 lung; 41.7 µM in the experiment with RPMI-8226 leukemia; > 100 µM with SK-MEL-28 melanoma; > 100 µM in the experiment with CAKI-1 renal; > 100 µM with UACC-257 melanoma. In addition, the TGI in the experiment on SF-268 CNS was determined as 82.3 µM; in the experiment on SF-539 CNS it was 56.8 µM.
For the molecule `O=c1nc2n(-c3cccc(Cl)c3)c3ccc([N+](=O)[O-])cc3cc-2c(=O)[nH]1`, the GI50 was 10.1 µM in the experiment with RXF 393 renal; 4.94 µM in the experiment with NCI-H23 lung; 3130 nM in the experiment on RPMI-8226 leukemia; 8.01 µM with SK-MEL-28 melanoma; 5.71 µM in the experiment on CAKI-1 renal; 9.78 µM with UACC-257 melanoma. Besides, the GI50 is 3.56 µM in the experiment with SF-268 CNS and 4.4 µM in the experiment on SF-539 CNS. In addition, the TGI is > 25 µM with RXF 393 renal; 10.6 µM with NCI-H23 lung; 10.8 µM in the experiment on RPMI-8226 leukemia; > 25 µM with SK-MEL-28 melanoma; 16 µM in the experiment on CAKI-1 renal; > 25 µM in the experiment with UACC-257 melanoma. Moreover, the TGI in the experiment with SF-268 CNS stood at 13.3 µM; in the experiment on SF-539 CNS, 11.8 µM.
With `CNC(=O)Oc1cc(C(C)C)ccc1Sc1ccc(C(C)C)cc1OC(=O)NC`, the GI50 in the experiment with RXF 393 renal is 2.52 µM; in the experiment with NCI-H23 lung, 6.5 µM; in the experiment on RPMI-8226 leukemia it was 1830 nM; in the experiment with SK-MEL-28 melanoma, 4.99 µM; with CAKI-1 renal, 3.34 µM; in the experiment on UACC-257 melanoma it was 5.81 µM. Besides, the GI50 in the experiment with SF-268 CNS was 5.36 µM; in the experiment on SF-539 CNS, 4.07 µM. Moreover, the TGI in the experiment with RXF 393 renal was determined as 9.34 µM; with NCI-H23 lung, 23.6 µM; in the experiment with RPMI-8226 leukemia, 7.48 µM; in the experiment with SK-MEL-28 melanoma, 17.9 µM; in the experiment on CAKI-1 renal, 17.1 µM; with UACC-257 melanoma, 20.3 µM. Further, the TGI in the experiment with SF-268 CNS was 19.4 µM; in the experiment on SF-539 CNS, 17.1 µM.
For `C/C(=C\C(=O)O[C@H]1[C@@H]2[C@H](C)CC[C@H]2[C@]2(C)O[C@@]1(C1CCCCC1)C[C@H]2OC(=O)CO)c1ccccc1`, the GI50 with RXF 393 renal was 0.0798 µM; with NCI-H23 lung, 6.87 µM; in the experiment on RPMI-8226 leukemia, 7200 nM; in the experiment with SK-MEL-28 melanoma it was 6.78 µM; with CAKI-1 renal it was 0.0235 µM; with UACC-257 melanoma it was 6.96 µM. Besides, the GI50 in the experiment on SF-268 CNS is 0.2 µM; in the experiment with SF-539 CNS, 7.1 µM. The TGI in the experiment on RXF 393 renal was found to be 7.12 µM; in the experiment on NCI-H23 lung, 13.9 µM; in the experiment with RPMI-8226 leukemia, 16.6 µM; with SK-MEL-28 melanoma, 12.6 µM; in the experiment on CAKI-1 renal, 5.01 µM; in the experiment with UACC-257 melanoma, 13.3 µM. In addition, the TGI in the experiment with SF-268 CNS worked out at 8.47 µM; with SF-539 CNS it was 13.2 µM.

The record behind these values is PubChem BioAssay (NCI).
